Laboratory results: patent US20210161189A1, “MONOESTER SUGAR DERIVATIVES AS FLAVOR MODIFIERS” (Firmenich SA, priority 2018, published 2021)

Experiments:
Type in all cases: in vivo, human
sensory panel [1] = assay: Sensory panel, raspberry flavored water; set-up: scale not given here; settings: panel score
Method: (§1) […] In parallel, a control composition, comprising raspberry flavored water was also generated. A sensory panel consisting of between 6 to 8 persons compared the overall flavor, sweetness, acidity, bitterness, astringency, off-notes, and long-lastingness of the sweetness of the test composition and the control composition. The results were analyzed using the Duncan comparison test.

sensory panel [2] = assay: Sensory panel, energy drink; set-up: scale not given here; settings: panel score
Method: as §1, with “energy drink composition” for “composition, comprising raspberry flavored water”

sensory panel [3] = assay: Sensory panel, lemon flavored alcoholic beverage; set-up: scale not given here; settings: panel score
Method: as §1, with “lemon” for “raspberry”, “alcoholic beverage” for “water”

sensory panel [4] = assay: Sensory panel, strawberry flavored bottled water (BWAT) containing 7% w/v sucrose; settings: 100 ppm in strawberry BWAT 7% sucrose; panel score
Method: Next, glucose-6-O-octanoate was added to a fruit flavored bottled water test composition (strawberry flavored water, containing 7% w/v sucrose), to result in a final concentration of 100 ppm in the test composition.

sensory panel [5] = assay: Sensory panel, orange flavored test composition; settings: 200 ppm in orange flavored test composition, panel score
Method: Next, glucose-6-O-octanoate was added to an orange flavored test composition, to result in a final concentration of 200 ppm in the test composition. In parallel, a control composition, comprising orange flavor was also generated. A sensory panel consisting of between 6 to 8 persons compared the overall flavor, sweetness, acidity, bitterness, astringency, off-notes, and long-lastingness of the sweetness of the test composition and the control composition. The results were analyzed using the Duncan comparison test.

sensory panel [6] = assay: Taste modifier properties in model systems (sensory panel of 15 persons, with/without noseclip); settings: 100 ppm; for Sour taste modulation effect: without nose clip
Method: The sensory properties of various compositions comprising a monoester derivative of glucose were tested in various model systems, outlined in Table 14 below. [table] FIGS. 12 to 18 report the sweetness modifier properties of each of the following compounds (tested at 100 ppm in the various mode systems described above): glucose-6-O-octanoate, glucose-6-O-acetate, glucose-6-O-hexanoate, glucose-6-O-decanoate, glucose-6-O-hexadecanoate, glucose-6-O-oleate and glucose-6-O-oleyl derivative. The sensory properties were evaluated by a sensory panel consisting of15 persons, where the properties were evaluated with the subjects wearing a noseclip (With NC), and without a noseclip (Without NC). The subjects evaluate the perceived intensities of different sensory attributes on a linear scale (“0” note intense to “10” very intense) for the corresponding model mixtures without and with the compound at 100ppm. The differences of perceived intensities between the model mixtures with and without the compound are represented for each attribute. A statistical data treatment (unilateral paired student test) is achieved on each attribute to conclude on a significant or not significant taste modulation effect of the compound.

[7] = 100 ppm in lemon flavored alcoholic beverage
[8] = 200 ppm in lemon flavored alcoholic beverage

CCCCCCCC(=O)OC[C@@H](O)[C@@H](O)[C@H](O)[C@@H](O)C=O [glucose-6-O-octanoate]
Astringency (sensory panel [1]; 100 ppm in raspberry water): 0.58
Bitterness (sensory panel [1]; 100 ppm in raspberry water): 0.5
Long-Lasting (sensory panel [1]; 100 ppm in raspberry water): 0.67
Overall Flavor (sensory panel [1]; 100 ppm in raspberry water): 3.33
Sweetness (sensory panel [1]; 100 ppm in raspberry water): 3.42
Acidity (sensory panel [1]; 200 ppm in raspberry water): 2.62
Long-Lasting (sensory panel [1]; 200 ppm in raspberry water): 1.81
Overall Flavor (sensory panel [1]; 200 ppm in raspberry water): 3.06
Sweetness (sensory panel [1]; 200 ppm in raspberry water): 2.69
Acidity (sensory panel [2]; 100 ppm in energy drink): 2.17
Astringency (sensory panel [2]; 100 ppm in energy drink): 0.67
Bitterness (sensory panel [2]; 100 ppm in energy drink): 0.83
Long-Lasting (sensory panel [2]; 100 ppm in energy drink): 2
Overall Flavor (sensory panel [2]; 100 ppm in energy drink): 3.33
Acidity (sensory panel [2]; 200 ppm in energy drink): 2.5
Astringency (sensory panel [2]; 200 ppm in energy drink): 0.29
Bitterness (sensory panel [2]; 200 ppm in energy drink): 0.93
Off-notes (sensory panel [2]; 200 ppm in energy drink): 0.21
Overall Flavor (sensory panel [2]; 200 ppm in energy drink): 3.5
Acidity (sensory panel [3]; [7]): 2
Astringency (sensory panel [3]; [7]): 1
Off-notes (sensory panel [3]; [7]): 0.25
Overall Flavor (sensory panel [3]; [7]): 3.5
Sweetness (sensory panel [3]; [7]): 3
Acidity (sensory panel [3]; [8]): 2
Astringency (sensory panel [3]; [8]): 2
Bitterness (sensory panel [3]; [8]): 1.1
Long-Lasting (sensory panel [3]; [8]): 1.6
Off-notes (sensory panel [3]; [8]): 0.4
Overall Flavor (sensory panel [3]; [8]): 2.3
Astringency (sensory panel [4]): 0.5
Long-Lasting (sensory panel [4]): 0.92
Off-notes (sensory panel [4]): 0.33
Overall Flavor (sensory panel [4]): 3
Sweetness (sensory panel [4]): 4.08
Acidity (sensory panel [5]): 2.07
Astringency (sensory panel [5]): decreasing
Bitterness (sensory panel [5]): decreasing the perceived bitterness
Long-Lasting (sensory panel [5]): 0.29
Off-notes (sensory panel [5]): 0.14
Overall Flavor (sensory panel [5]): 3
Sweetness (sensory panel [5]): 2.79
Astringency (sensory panel [5]; listed as 71007): 1 B
Bitterness (sensory panel [5]; listed as 71007): 1.07 B
Sweet taste modulation effect (sensory panel [6]; SG95 model mixture, without and with nose clip): significant sweet enhancing effects
Round/thick/mouth coating modulation effect (sensory panel [6]; beverage grapefruit model, with nose clip, significance 95%): significant round/thick/mouth coating enhancing effect
Sour taste modulation effect (sensory panel [6]; beverage grapefruit model, significance 95%): significant sour masking effect
Sweet taste modulation effect (sensory panel [6]; semi-skimmed milk+sucrose model mixture, without and with nose clip): significant sweet enhancing effects
Sweet taste modulation effect (sensory panel [6]; stevia-sour model, with nose clip, significance 95%): significant sweet masking effect
Sweet taste modulation effect (sensory panel [6]; sucrose model mixture): significant sweet enhancing effects
Sour taste modulation effect (sensory panel [6]; sweet-sour model mixture, significance 95%): significant sour masking effect
